Experimental data as given in the supplement of paper PMC6045584.
± gives the standard deviation of the averaged measurements.

Experiments:
[1] = compound: C=CC(=O)Nc1cc2c(Nc3ccc(F)c(Cl)c3)ncnc2cc1OCCCN1CCOCC1 [CANERTINIB]; assay: surviving fraction relative to DMSO-only wells; higher = less growth inhibition; conditions: exposure time: 5 days
In short: (§1)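 Viability was determined by CellTiter-Glo luminescence, expressed as surviving fraction normalised to the median of DMSO-only wells. The cells were log-phase tumour cell lines seeded at 250–500 per well in 384-well plates and, after 24 hours, exposed continuously for five days to inhibitors at 0.5, 1, 5, 10, 50, 100, 500 and 1000 nM. Three screens per line were run, keeping only lines with replicate Pearson r >0.7 and median Z' >0.3.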

[2] = compound: CNC(=O)c1ccc(N2C(=S)N(c3ccc(C#N)c(C(F)(F)F)c3)C(=O)C2(C)C)cc1F [MDV3100]; assay: as above; conditions: exposure time: 5 days
In short: as §1

Row | Test System | surviving fraction ([1]; 0.5 nM) | surviving fraction ([1]; 1 nM) | surviving fraction ([1]; 5 nM) | surviving fraction ([1]; 10 nM) | surviving fraction ([1]; 50 nM) | surviving fraction ([1]; 100 nM) | surviving fraction ([1]; 500 nM) | surviving fraction ([1]; 1000 nM) | surviving fraction ([2]; 0.5 nM) | surviving fraction ([2]; 1 nM) | surviving fraction ([2]; 5 nM) | surviving fraction ([2]; 10 nM) | surviving fraction ([2]; 50 nM) | surviving fraction ([2]; 100 nM) | surviving fraction ([2]; 500 nM) | surviving fraction ([2]; 1000 nM)
1 | HCC70 BREAST | 0.991 ± 0.14 | 1.088 ± 0.0046 | 1.02 ± 0.078 | 0.96 ± 0.019 | 0.911 ± 0.047 | 0.893 ± 0.017 | 0.707 ± 0.0092 | 0.666 ± 0.068 | 0.994 ± 0.021 | 0.955 ± 0.052 | 0.992 ± 0.085 | 0.963 ± 0.16 | 1.06 ± 0.082 | 0.979 ± 0.051 | 0.975 ± 0.076 | 0.88 ± 0.058
2 | SYO1 SYNOVIAL | 0.836 ± 0.061 | 0.791 ± 0.045 | 0.793 ± 0.027 | 0.784 ± 0.029 | 0.86 ± 0.029 | 0.871 ± 0.038 | 0.666 ± 0.019 | 0.498 ± 0.022 | 0.989 ± 0.036 | 0.883 ± 0.051 | 0.946 ± 0.018 | 0.546 ± 0.027 | 0.91 ± 0.023 | 0.914 ± 0.032 | 0.987 ± 0.05 | 0.653 ± 0.023
3 | VCAP PROSTATE | 0.902 ± 0.036 | 0.904 ± 0.026 | 0.954 ± 0.046 | 0.935 ± 0.12 | 1.19 ± 0.083 | 1.17 ± 0.1 | 0.859 ± 0.09 | 0.737 ± 0.037 | 1.04 ± 0.12 | 1.06 ± 0.23 | 1.09 ± 0.12 | 1.11 ± 0.14 | 1.13 ± 0.058 | 1.09 ± 0.15 | 0.837 ± 0.07 | 0.722 ± 0.1
4 | MDAMB453 BREAST | 1.04 ± 0.026 | 1 ± 0.016 | 1.01 ± 0.058 | 1.01 ± 0.071 | 1.02 ± 0.047 | 1.07 ± 0.026 | 0.823 ± 0.0089 | 0.637 ± 0.067 | 0.953 ± 0.045 | 0.942 ± 0.071 | 0.962 ± 0.055 | 0.98 ± 0.07 | 0.956 ± 0.054 | 0.967 ± 0.037 | 0.985 ± 0.032 | 0.924 ± 0.0079
5 | KPD BONE | 0.943 ± 0.043 | 0.947 ± 0.076 | 0.962 ± 0.026 | 0.929 ± 0.023 | 0.917 ± 0.068 | 0.922 ± 0.04 | 0.776 ± 0.048 | 0.497 ± 0.047 | 0.955 ± 0.071 | 0.975 ± 0.023 | 0.997 ± 0.048 | 0.985 ± 0.044 | 1.04 ± 0.058 | 1.04 ± 0.067 | 0.977 ± 0.19 | 0.938 ± 0.015
6 | NOS1 BONE | 0.909 ± 0.16 | 0.939 ± 0.12 | 0.957 ± 0.094 | 1.04 ± 0.14 | 1.04 ± 0.11 | 1.1 ± 0.1 | 0.585 ± 0.052 | 0.333 ± 0.02 | 1.18 ± 0.11 | 1 ± 0.043 | 1.11 ± 0.069 | 1.1 ± 0.2 | 1.04 ± 0.062 | 1.16 ± 0.086 | 0.972 ± 0.073 | 1.03 ± 0.027
7 | MHM BONE | 0.981 ± 0.051 | 0.983 ± 0.038 | 1.03 ± 0.054 | 1 ± 0.051 | 0.9877 ± 0.0076 | 0.953 ± 0.021 | 0.903 ± 0.019 | 0.863 ± 0.018 | 1 ± 0.039 | 1 ± 0.054 | 1.01 ± 0.025 | 1.01 ± 0.039 | 1.02 ± 0.02 | 1.01 ± 0.029 | 0.973 ± 0.012 | 0.952 ± 0.0046
8 | G292 BONE | 0.914 ± 0.061 | 0.949 ± 0.028 | 0.966 ± 0.055 | 0.957 ± 0.019 | 0.955 ± 0.054 | 0.997 ± 0.073 | 0.876 ± 0.046 | 0.677 ± 0.051 | 0.9907 ± 0.009 | 1.03 ± 0.02 | 1.03 ± 0.059 | 1.02 ± 0.013 | 0.956 ± 0.032 | 0.985 ± 0.036 | 0.961 ± 0.013 | 0.865 ± 0.024
9 | PCI30 HEADNECK | 0.962 ± 0.047 | 0.879 ± 0.058 | 0.866 ± 0.042 | 0.641 ± 0.032 | 0.485 ± 0.03 | 0.47 ± 0.017 | 0.323 ± 0.034 | 0.228 ± 0.028 | 0.908 ± 0.034 | 0.831 ± 0.075 | 0.954 ± 0.071 | 1.01 ± 0.08 | 1.09 ± 0.056 | 1 ± 0.014 | 0.861 ± 0.088 | 0.945 ± 0.036
10 | 93VU HEADNECK | 0.784 ± 0.029 | 0.787 ± 0.065 | 0.86 ± 0.034 | 0.698 ± 0.042 | 1.07 ± 0.053 | 0.738 ± 0.062 | 0.63 ± 0.02 | 0.312 ± 0.044 | 0.848 ± 0.096 | 0.876 ± 0.058 | 1.05 ± 0.099 | 0.994 ± 0.12 | 1.07 ± 0.15 | 1.04 ± 0.22 | 0.887 ± 0.03 | 0.771 ± 0.016
11 | 22RV1 PROSTATE | 0.981 ± 0.038 | 0.913 ± 0.091 | 0.985 ± 0.033 | 1.08 ± 0.25 | 1.05 ± 0.24 | 1.01 ± 0.11 | 1.12 ± 0.22 | 0.905 ± 0.14 | 0.953 ± 0.067 | 0.954 ± 0.061 | 0.997 ± 0.051 | 0.938 ± 0.066 | 0.934 ± 0.12 | 0.968 ± 0.04 | 0.862 ± 0.21 | 0.781 ± 0.27
12 | MFM223 BREAST | 0.817 ± 0.075 | 0.898 ± 0.12 | 0.84 ± 0.14 | 0.808 ± 0.01 | 0.958 ± 0.077 | 1 ± 0.034 | 0.874 ± 0.013 | 0.794 ± 0.029 | 1.1 ± 0.12 | 1.14 ± 0.17 | 1.19 ± 0.17 | 1.12 ± 0.17 | 1.06 ± 0.074 | 1.08 ± 0.041 | 1.09 ± 0.036 | 1.02 ± 0.095
13 | HU09 BONE | 0.807 ± 0.14 | 0.891 ± 0.066 | 0.977 ± 0.058 | 0.904 ± 0.079 | 1.02 ± 0.086 | 1.02 ± 0.081 | 0.766 ± 0.033 | 0.478 ± 0.027 | 0.984 ± 0.077 | 1.03 ± 0.11 | 1.05 ± 0.071 | 1.12 ± 0.18 | 1 ± 0.055 | 1.04 ± 0.057 | 0.952 ± 0.053 | 0.954 ± 0.018
14 | H23 LUNG | 0.908 ± 0.038 | 0.86 ± 0.051 | 0.742 ± 0.031 | 0.553 ± 0.032 | 0.403 ± 0.035 | 0.3637 ± 0.0035 | 0.29 ± 0.011 | 0.252 ± 0.014 | 0.978 ± 0.013 | 0.95 ± 0.0056 | 0.944 ± 0.03 | 0.942 ± 0.011 | 0.954 ± 0.026 | 0.9877 ± 0.0021 | 0.93 ± 0.034 | 0.891 ± 0.02
15 | YAMATO SYNOVIAL | 0.878 ± 0.19 | 0.857 ± 0.088 | 0.909 ± 0.065 | 0.938 ± 0.091 | 1.27 ± 0.1 | 1.28 ± 0.067 | 1.06 ± 0.083 | 1.1 ± 0.074 | 1.12 ± 0.074 | 0.741 ± 0.028 | 1.08 ± 0.076 | 0.241 ± 0.015 | 1.22 ± 0.12 | 0.977 ± 0.081 | 1.15 ± 0.053 | 0.352 ± 0.018
16 | SCC003 HEADNECK | 0.691 ± 0.065 | 0.867 ± 0.032 | 0.897 ± 0.054 | 0.775 ± 0.014 | 0.899 ± 0.075 | 0.8 ± 0.075 | 0.718 ± 0.036 | 0.434 ± 0.061 | 0.928 ± 0.12 | 0.808 ± 0.069 | 1 ± 0.049 | 0.996 ± 0.051 | 1.06 ± 0.032 | 1.02 ± 0.059 | 1.02 ± 0.044 | 0.858 ± 0.098
17 | VP229 BREAST | 0.724 ± 0.051 | 0.682 ± 0.085 | 0.638 ± 0.11 | 0.514 ± 0.061 | 0.467 ± 0.021 | 0.42 ± 0.033 | 0.201 ± 0.019 | 0.154 ± 0.044 | 1.05 ± 0.052 | 0.995 ± 0.089 | 0.878 ± 0.095 | 0.905 ± 0.13 | 1 ± 0.12 | 0.994 ± 0.055 | 0.947 ± 0.07 | 0.806 ± 0.077
18 | LM7 BONE | 0.739 ± 0.015 | 0.657 ± 0.0061 | 0.791 ± 0.019 | 0.75 ± 0.012 | 0.88 ± 0.044 | 0.872 ± 0.085 | 0.655 ± 0.026 | 0.536 ± 0.027 | 0.992 ± 0.053 | 1.01 ± 0.073 | 1.07 ± 0.096 | 1.06 ± 0.03 | 1.15 ± 0.09 | 1.14 ± 0.087 | 1.07 ± 0.096 | 0.963 ± 0.05
19 | SNU475 LIVER | 0.917 ± 0.0099 | 0.8847 ± 0.0057 | 0.88 ± 0.051 | 0.85 ± 0.041 | 0.9373 ± 0.0055 | 0.908 ± 0.024 | 0.869 ± 0.022 | 0.808 ± 0.058 | 1.03 ± 0.034 | 0.903 ± 0.024 | 1 ± 0.039 | 0.438 ± 0.011 | 1.01 ± 0.018 | 0.902 ± 0.016 | 0.974 ± 0.014 | 0.516 ± 0.02
20 | SUM149.B1*.S BREAST | 0.921 ± 0.016 | 0.941 ± 0.015 | 0.933 ± 0.026 | 0.917 ± 0.048 | 0.956 ± 0.028 | 0.972 ± 0.018 | 0.868 ± 0.055 | 0.805 ± 0.029 | 0.994 ± 0.02 | 0.925 ± 0.017 | 0.979 ± 0.063 | 0.578 ± 0.014 | 1.03 ± 0.04 | 0.9605 ± 0.0031 | 1.02 ± 0.011 | 0.694 ± 0.049
21 | SCC90 HEADNECK | 0.781 ± 0.13 | 0.793 ± 0.056 | 0.787 ± 0.018 | 0.737 ± 0.064 | 0.656 ± 0.075 | 0.564 ± 0.065 | 0.428 ± 0.021 | 0.335 ± 0.051 | 0.893 ± 0.093 | 0.91 ± 0.076 | 1.04 ± 0.11 | 0.942 ± 0.1 | 1.17 ± 0.2 | 1.03 ± 0.13 | 0.86 ± 0.054 | 0.925 ± 0.099
